Assays:
Format in all cases: cell-based, human
[1] = tested on: α-SMA, CTGF and NOX4 genes in CCD8-Lu cells; experiment: Comparison of anti-fibrotic activity by quantitative real-time PCR (Experimental Example 4.1); conditions: 6 hours after 5 ng/ml TGF-β, 18 hours, qRT-PCR
Description: A cell-based analysis experiment was performed to analyze the anti-fibrotic activity of pheophorbide a obtained in Preparation Example 2 in comparison with nintedanib and pirfenidone, which were previously approved as a therapeutic agent for pulmonary fibrosis, using quantitative real-time polymerase chain reaction.
(§1) CCD8-Lu cells, which are human lung-derived fibroblasts, were cultured in the DMEM medium containing 10% FBS. About 2×10^5 cells were then inoculated into a 6 well plate, cultured for 24 hours, and subjected to the deficient condition in the DMEM medium from which FBS was removed for about 24 hours.
24 hours later, following the treatment with TGF-β at a concentration of 5 ng/ml, fibrosis of cells was induced for 6 hours. After 6 hours, the cells were treated with pheophorbide a obtained in Preparation Example 2 or the therapeutic agent for pulmonary fibrosis and further cultured for 18 hours. […]
The supernatant was separated, added with the same volume of isopropyl alcohol and centrifuged at 12,000×g for 10 minutes. […] After drying, about 50 μl of RNAase-free purified distilled water was added thereto, and the quantity and purity of the obtained RNA was measured using a spectrophotometer. […]
After the cDNA synthesis reaction was completed, the reverse transcriptase was inactivated by heating at 72° C. for 5 minutes, and then RNase H was added to remove the […] RNA and obtain the final cDNA. Whether the expression of the alpha-smooth muscle actin gene, which is a characteristic gene of myofibroblasts, the CCN2 (or CTGF) gene, which is a characteristic gene for fibrosis, fibronectin, which is a characteristics gene for fibrosis, and the NOX4 (NADPH oxidase 4) gene known as a major regulator of the amount of reactive oxygen species was changed was observed through quantitative real-time polymerase chain reaction. The GAPDH gene was quantified together to correct differences in expression.

[2] = tested on: α-SMA, collagen 1A and fibronectin in CCD8-Lu cells; experiment: Comparison of anti-fibrotic activity by Western blotting (Experimental Example 4.2); conditions: 6 hours after 5 ng/ml TGF-β, 18 hours
Description: A cell-based analysis experiment was performed to analyze the anti-fibrotic activity of pheophorbide a in comparison with nintedanib and pirfenidone, which were previously approved as a therapeutic agent for pulmonary fibrosis, using Western blotting assay.
as §1
24 hours later, following the treatment with TGF-β at a concentration of 5 ng/ml, fibrosis of cells was induced for 6 hours. Then, the cells were treated with pheophorbide a obtained in Preparation Example 2 or the therapeutic agent for pulmonary fibrosis and further cultured for 18 hours. Then, the negative control group was treated with nothing, the positive control group was treated with TGF-β alone at a concentration of 5 ng/ml, and the experimental groups were treated with TGF-β at a concentration of 5 ng/ml and 6 hours later, with pheophorbide a at a concentration of […] or 5 μM, nintedanib at a concentration of 1 μM, and pirfenidone at a concentration of 1 mM, respectively.
After 18 hours, the culture medium was removed and the cells were washed twice by adding a PBS buffer solution, and 100 μl of RIPA buffer solution (150 mM NaCl, 1% NP-40, 0.5% Deoxycholic acid, 0.1% SDS, 50 mM Tris pH 7.5) containing a protease inhibitor was added thereto directly. 10 minutes later, the cells were recovered using a scraper and transferred to a microtube and centrifuged at about 12,000×g for 10 minutes.
The separated supernatant was obtained and transferred to a new microtube and then the protein was quantified using a bicinchoninic acid assay (BCA assay) protein quantitative kit. Each sample with the same amount of protein was subjected to electrophoresis, and then Western blotting was performed. […]

[3] = tested on: collagen 1A in CCD8-Lu cells; experiment: Comparison of anti-fibrotic activity by immunocytochemistry staining (Experimental Example 4.3); conditions: 1 μM; 6 hours after 5 ng/ml TGF-β; fluorescence intensity
Description: A cell-based analysis experiment was performed to analyze the anti-fibrotic activity of pheophorbide a in comparison with nintedanib and pirfenidone, which were previously approved as a therapeutic agent for pulmonary fibrosis, using immunocytochemistry staining method. CCD8-Lu cells, which are human lung-derived fibroblasts, were cultured in the DMEM medium containing 10% FBS. About 2×10^4 cells were then inoculated into a 24 well plate and cultured for 24 hours, and subjected to the deficient condition in the DMEM medium from which FBS was removed for about 24 hours. After 24 hours, following the treatment with TGF-β at a concentration of 5 ng/ml, fibrosis of cells was induced for 6 hours. After 6 hours, the cells were treated with 2.5 μM or 5 μM of pheophorbide a, 1 μM of nintedanib, or 1 mM of pirfenidone. Immunohistochemistry analysis for each sample was performed as follows. First, the sample was washed twice with a PBS buffer, and then 4% formaldehyde was added to fix for 1 hour, and anti-collagen 1A was used as a primary antibody and Alexa Fluor 488 was used as a secondary antibody. The nuclei were stained using DAPI (4,6-diamidino-2-phenylindole) and the difference in the intensity of fluorescence was analyzed using a fluorescence microscope.

[4] = tested on: phosphorylated Smad3 and phosphorylated ERK in CCD8-Lu cells; experiment: Western blotting of phosphorylated proteins of TGF-β signaling (Experimental Example 5); conditions: 1 μM, 6 hours after 5 ng/ml TGF-β
Description: A cell-based assay experiment was performed using Western blotting assay to determine the effect of pheophorbide a on phosphorylation in the TGF-β signaling pathway. CCD8-Lu cells, which are human lung-derived fibroblasts, were cultured in the DMEM medium containing 10% FBS. About 2×10^5 cells were then inoculated into a 6 well plate, cultured for 24 hours, and subjected to the deficient condition in the DMEM medium from which FBS was removed for about 24 hours. 24 hours later, following the treatment with TGF-β at a concentration of 5 ng/ml, fibrosis of cells was induced for 6 hours. Then, the cells were treated with pheophorbide a obtained in Preparation Example 2 or the therapeutic agent for pulmonary fibrosis and further cultured for 18 hours. Then, the negative control group was treated with nothing, the positive control group was treated with TGF-β alone at a concentration of 5 ng/ml, and the experimental groups were treated with TGF-β at a concentration of 5 ng/ml and 6 hours later, with pheophorbide a at a concentration of 5 μM and nintedanib at a concentration of 1 μM, respectively. […] The separated supernatant was obtained and transferred to a new microtube and then the protein was quantified using a bicinchoninic acid assay (BCA assay) protein quantitative kit. […]

Compound	expression of α-SMA, CTGF and NOX4 genes induced by TGF-β ([1]; 1 μM)	expression of α-SMA, collagen 1A, and fibronectin induced by TGF-β ([2]; 1 μM)	expression of the collagen 1A protein induced by TGF-β [3]	expression of phosphorylated Smad3 and phosphorylated ERK induced by TGF-β [4]	expression of α-SMA, CTGF and NOX4 genes induced by TGF-β ([1]; 1 mM)	expression of α-SMA, collagen 1A, and fibronectin induced by TGF-β ([2]; 1 mM)
COC(=O)c1ccc2c(c1)NC(=O)/C2=C(\Nc1ccc(N(C)C(=O)CN2CCN(C)CC2)cc1)c1ccccc1 [nintedanib, reference compound]	weakly or hardly inhibited	weakly or hardly inhibited	weakly inhibited	hardly inhibited	–	–
Cc1ccc(=O)n(-c2ccccc2)c1 [pirfenidone]	–	–	–	–	weakly or hardly inhibited	weakly or hardly inhibited

From patent US20230015532A1, “PHARMACEUTICAL COMPOSITION, FOR PREVENTING OR TREATING FIBROSIS, COMPRISING PHEOPHORBIDE COMPOUND AS ACTIVE INGREDIENT” (PAEAN BIOTECHNOLOGY INC., priority 2019, published 2023)
